Test results taken from ChEMBL document CHEMBL1201862, “PubChem BioAssay data set” (2004).
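Test compounds were applied to cells in 96-well plates for 48 hours at 5 doses. Here, GI50 denotes the concentration required for 50% inhibition of growth.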 Activity calls are given as the source filed them. No stated cut-off is given here; in the data, active = GI50 up to about 1.1 µM and inactive = higher.

Columns and labels:
Assay in all cases: NCI-60 cell line screen, 48 h
[1] = tested on: CCRF-CEM
[2] = tested on: SK-MEL-5
[3] = tested on: LOX IMVI
[4] = tested on: M14
[5] = tested on: IGROV-1
[6] = tested on: NCI-H23
[7] = tested on: COLO 205
[8] = tested on: HOP-18
[9] = tested on: HT-29
[10] = tested on: SK-MEL-2
[11] = tested on: HOP-92
[12] = tested on: M19-MEL
[13] = tested on: SK-OV-3
[14] = tested on: TK-10
[15] = tested on: HCC 2998
[16] = tested on: OVCAR-3
[17] = tested on: UACC-62
[18] = tested on: SR
[19] = tested on: SN12C
[20] = tested on: KM-20L2
[21] = tested on: ACHN
[22] = tested on: DMS-114
[23] = tested on: SF-539
[24] = tested on: SNB-19
[25] = tested on: HCT-116
[26] = tested on: CAKI-1
[27] = tested on: SF-268
[28] = tested on: OVCAR-4
[29] = tested on: NCI-H460
[30] = tested on: A549
[31] = tested on: MOLT-4
[32] = tested on: NCI-H522
[33] = tested on: A498
[34] = tested on: DMS-273
[35] = tested on: SK-MEL-28
[36] = tested on: NCI-H226
[37] = tested on: SF-295
[38] = tested on: SW-620
[39] = tested on: RPMI-8226
[40] = tested on: OVCAR-5
[41] = tested on: K562
[42] = tested on: Malme-3M
[43] = tested on: 786-0
[44] = tested on: KM12
[45] = tested on: DLD-1
[46] = tested on: SNB-75
[47] = tested on: XF498
[48] = tested on: HOP-62
[49] = tested on: UACC-257
[50] = tested on: HCT-15
[51] = tested on: U-251
[52] = tested on: HL-60
[53] = tested on: OVCAR-8
[54] = tested on: LXFL 529
[55] = tested on: RXF 393
[56] = tested on: EKVX
[57] = tested on: SNB-78
[58] = tested on: UO-31

Nc1nc(SCC(=O)c2ccccc2)c2[nH]cnc2n1
GI50 [1]: 51.6 µM (inactive)
GI50 [2]: > 100 µM (inactive)
GI50 [3]: > 100 µM (inactive)
GI50 [4]: > 100 µM (inactive)
GI50 [5]: > 100 µM (inactive)
GI50 [6]: > 100 µM (inactive)
GI50 [7]: > 100 µM (inactive)
GI50 [8]: > 100 µM (inactive)
GI50 [9]: > 100 µM (inactive)
GI50 [10]: > 100 µM (inactive)
GI50 [11]: 46.5 µM (inactive)
GI50 [12]: > 100 µM (inactive)
GI50 [13]: > 100 µM (inactive)
GI50 [14]: > 100 µM (inactive)
GI50 [15]: > 100 µM (inactive)
GI50 [16]: > 100 µM (inactive)
GI50 [17]: > 100 µM (inactive)
GI50 [18]: > 100 µM (inactive)
GI50 [19]: > 100 µM (inactive)
GI50 [20]: > 100 µM (inactive)
GI50 [21]: > 100 µM (inactive)
GI50 [22]: > 100 µM (inactive)
GI50 [23]: > 100 µM (inactive)
GI50 [24]: > 100 µM (inactive)
GI50 [25]: > 100 µM (inactive)
GI50 [26]: > 100 µM (inactive)
GI50 [27]: > 100 µM (inactive)
GI50 [28]: > 100 µM (inactive)
GI50 [29]: > 100 µM (inactive)
GI50 [30]: > 100 µM (inactive)
GI50 [31]: > 100 µM (inactive)
GI50 [32]: > 100 µM (inactive)
GI50 [33]: > 100 µM (inactive)
GI50 [34]: > 100 µM (inactive)
GI50 [35]: > 100 µM (inactive)
GI50 [36]: > 100 µM (inactive)
GI50 [37]: > 100 µM (inactive)
GI50 [38]: > 100 µM (inactive)
GI50 [39]: > 100 µM (inactive)
GI50 [40]: > 100 µM (inactive)
GI50 [41]: > 100 µM (inactive)
GI50 [42]: > 100 µM (inactive)
GI50 [43]: > 100 µM (inactive)
GI50 [44]: > 100 µM (inactive)
GI50 [45]: > 100 µM (inactive)
GI50 [46]: 21.9 µM (inactive)
GI50 [47]: > 100 µM (inactive)
GI50 [48]: > 100 µM (inactive)
GI50 [49]: > 100 µM (inactive)
GI50 [50]: > 100 µM
GI50 [51]: > 100 µM (inactive)
GI50 [52]: > 100 µM (inactive)
GI50 [53]: > 100 µM (inactive)

Cc1ccccc1C(CCCO)C(=O)O (configuration not stated)
GI50 [1]: > 100 µM (inactive)
GI50 [2]: > 100 µM (inactive)
GI50 [3]: > 100 µM (inactive)
GI50 [4]: > 100 µM (inactive)
GI50 [5]: > 100 µM (inactive)
GI50 [6]: > 100 µM (inactive)
GI50 [7]: > 100 µM (inactive)
GI50 [9]: > 100 µM (inactive)
GI50 [10]: > 100 µM (inactive)
GI50 [11]: > 100 µM (inactive)
GI50 [12]: > 100 µM (inactive)
GI50 [13]: > 100 µM (inactive)
GI50 [14]: > 100 µM (inactive)
GI50 [15]: > 10 µM (inactive)
GI50 [54]: > 100 µM (inactive)
GI50 [16]: > 100 µM (inactive)
GI50 [17]: > 100 µM (inactive)
GI50 [55]: > 100 µM (inactive)
GI50 [19]: > 100 µM (inactive)
GI50 [21]: > 100 µM (inactive)
GI50 [22]: > 100 µM (inactive)
GI50 [23]: > 100 µM (inactive)
GI50 [24]: > 100 µM (inactive)
GI50 [25]: > 100 µM (inactive)
GI50 [56]: > 100 µM (inactive)
GI50 [26]: > 100 µM (inactive)
GI50 [27]: > 100 µM (inactive)
GI50 [28]: > 100 µM (inactive)
GI50 [57]: > 100 µM (inactive)
GI50 [29]: > 100 µM (inactive)
GI50 [30]: > 100 µM (inactive)
GI50 [31]: > 100 µM (inactive)
GI50 [32]: > 100 µM (inactive)
GI50 [33]: > 100 µM (inactive)
GI50 [34]: > 100 µM (inactive)
GI50 [35]: > 100 µM (inactive)
GI50 [37]: > 100 µM (inactive)
GI50 [38]: > 100 µM (inactive)
GI50 [39]: > 100 µM (inactive)
GI50 [40]: > 100 µM (inactive)
GI50 [41]: > 100 µM (inactive)
GI50 [42]: > 100 µM (inactive)
GI50 [43]: > 100 µM (inactive)
GI50 [44]: > 100 µM (inactive)
GI50 [45]: > 100 µM (inactive)
GI50 [46]: > 100 µM (inactive)
GI50 [58]: > 100 µM (inactive)
GI50 [47]: > 100 µM (inactive)
GI50 [48]: > 100 µM (inactive)
GI50 [49]: > 100 µM (inactive)
GI50 [50]: > 100 µM
GI50 [51]: > 100 µM (inactive)
GI50 [52]: > 100 µM (inactive)
GI50 [53]: > 100 µM (inactive)
